Data: US11466020B2, “Compounds and compositions for inhibition and elimination of Zika infection and uses for same” (Cornell University, priority 2017, dated 2022)
Where a name gives a salt, the structure may show the parent alone.

Columns and labels:
[1] = system: ZIKV (MR766 strain); test: Vero cell re-infection assay (infectious ZIKV in hNPC supernatant); format: cell-based, Zika virus; conditions: supernatant of hNPC cultures, 72 h after infection
Experimental: (A) Scheme of high content chemical screen. (B) Chemical structure of hit compounds. (C) Inhibitory curve and IC50 of HH or AQ on hNPCs (n=6). (D-H) Immunocytochemistry analysis (D), the quantification of the infection rate (E), the quantification of proliferation rate (F), the quantification of cell apoptosis rate (G) and the normalized cell viability (H) of hNPCs at 72 h after ZIKV (MR 766 strain) infection with or without drug treatment. Scale bars, 100 μm. The ZIKV infection rate is defined as the percentage of ZIKV E^+ cells. The proliferation rate is defined as the percentages of Ki67^+ cells. The cell apoptosis rate was defined as the percentage of cleaved-Caspase 3/CAS3^+ cells. The normalized cell viability was calculated by dividing the total cell number of each condition by the total cell number under mock infection conditions. (n=6). […] (K) Quantification of ZIKV infectious particles produced by ZIKV-infected hNPCs with or without compound treatment by the Vero cell reinfection assay. […] (M and N) Immunocytochemistry analysis (M) and quantification of the infection rate (N) of hNPCs at 72 h after ZIKV (PRVABC59 strain) infection with or without drug treatment (n=6). Scale bars, 100 μm. p values were calculated by one-way repeated measures ANOVA with a Bonferroni test for multiple comparisons. *p<0.05, **p<0.01 and ***p<0.001. […]

[2] = system: hNPCs; test: hNPC viability, proliferation, apoptosis and identity; format: cell-based, human; conditions: for ZIKV induced growth arrest or apoptosis of hNPCs: 72 h after ZIKV (MR766) infection, vs DMSO
Experimental: (A) Scheme of high content chemical screen. (B) Chemical structure of hit compounds. (C) Inhibitory curve and IC50 of HH or AQ on hNPCs (n=6). (D-H) Immunocytochemistry analysis (D), the quantification of the infection rate (E), the quantification of proliferation rate (F), the quantification of cell apoptosis rate (G) and the normalized cell viability (H) of hNPCs at 72 h after ZIKV (MR 766 strain) infection with or without drug treatment. Scale bars, 100 μm. The ZIKV infection rate is defined as the percentage of ZIKV E^+ cells. The proliferation rate is defined as the percentages of Ki67^+ cells. The cell apoptosis rate was defined as the percentage of cleaved-Caspase 3/CAS3^+ cells. The normalized cell viability was calculated by dividing the total cell number of each condition by the total cell number under mock infection conditions. (n=6). (I) qRT-PCR analysis to monitor the total ZIKV vRNA in the supernatant of hNPC cultures at 72 h after ZIKV infection with or without drug treatment. (J) Vero cell reinfection assay to monitor the ZIKV infectious particles in the supernatant of hNPC cultures with or without drug treatment. To perform the Vero cell reinfection assay, hNPCs at 72 h after ZIKV infection were washed three times and changed to drug free medium for an additional 24 h. Vero cells were infected with the supernatant collected from hNPCs for 2 h and changed to virus free medium for an additional 24 h. Vero cells were stained with antibody against ZIKV E and DAPI. Scale bars, 200 μm. (n=3). (K) Quantification of ZIKV infectious particles produced by ZIKV-infected hNPCs with or without compound treatment by the Vero cell reinfection assay. (L) Heatmap analysis of mock-infected hNPCs treated with DMSO (mock); mock infected hNPCs treated with 25 μM HH (HH), mock-infected hNPCs treated with 15 μM AQ (AQ), ZIKV (MR766 strain, MOI=0.125) infected hNPCs treated with DMSO (ZIKV+DMSO); ZIKV-infected hNPCs treated with 25 μM HH (ZIKV+HH), and ZIKV-infected hNPCs treated with 15 μM AQ (ZIKV+AQ). […] (M and N) Immunocytochemistry analysis (M) and quantification of the infection rate (N) of hNPCs at 72 h after ZIKV (PRVABC59 strain) infection with or without drug treatment (n=6). Scale bars, 100 μm. p values were calculated by one-way repeated measures ANOVA with a Bonferroni test for multiple comparisons. *p<0.05, **p<0.01 and ***p<0.001.
(A) Scheme to evaluate the elimination of ZIKV. At day 0, hNPCs were infected with ZIKV for 2 h. After removal of ZIKV infection medium, hNPCs were treated with drug candidates. At day 3, the culture medium was changed to fresh medium without compounds. The cells were maintained in drug-free culture until day 6 and used for immunohistochemistry and qRT-PCR. (B and C) Inhibitory curve and IC50 of HH calculated based on the infection rate (B) and normalized cell viability (C) (n=6). (D and E) Immunocytochemistry analysis (D) and the quantification of infection rate, cell apoptosis rate, and total cell number (E) of hNPCs on day 3 and day 6. Cells was fixed and stained with cleaved Caspase-3 (CAS3), ZIKV E and DAPI. Scale bars, 100 μm. (F) qRT-PCR analysis to monitor the total ZIKV vRNA in the supernatant of hNPC cultures on day 6. Scale bars, 200 μm. (n=3). (G) Vero cell reinfection assay to monitor the infective ZIKV vRNA in the supernatant of hNPC cultures at day 6 after ZIKV infection. Scale bars, 200 μm. (n=3). (H) Quantification of ZIKV infectious particles produced by ZIKV-infected hNPCs at day 6 by the Vero cell reinfection assay. (I) hNPCs with or without ZIKV infection treated with HH maintain hNPC marker expression and differentiation capacity. hNPCs with or without ZIKV MR766 infection were treated with 25 μM HH or DMSO for 3 days and then stained for SOX2, NESTIN and with DAPI. hNPCs with or without ZIKV infection and treated with HH or DMSO for 3 days were differentiated to cortical neurons. The cortical neurons were then fixed and stained for MAP2, TUJ1 and with DAPI. Scale bars, 100 μm. (n=3). […]

[3] = system: transcriptional changes induced by ZIKV (MR766 strain) infection; test: RNA-seq analysis of ZIKV infected hNPCs; format: cell-based, human; conditions: 72 h post-inoculation, 25 μM HH or 15 μM AQ
[4] = system: ZIKV (FSS13025 strain); test: qRT-PCR of vRNA in human forebrain organoids treated 42 h or 48 h post-infection (FSS13025); format: cell-based, Zika virus; conditions: HH added at 42 h or 48 h post-infection, additional 3 days
Experimental: Immunocytochemical analysis of D20+4 ZIKV-infected organoids treated with 15 μM AQ or DMSO or with mock infection (n=3). D20+4 organoids were stained for SOX2, ZIKV E and with DAPI to monitor the ZIKV infection rate. D20+4 organoids were also stained for Ki67, CAS3 and with DAPI to monitor the cell proliferation and apoptosis rate. […] Scale bars, 100 μm. (B) The expression dynamics of ZIKV vRNA (FSS13025 strain) in human forebrain organoids. qRT-PCR analysis to quantify the total and replicating (−) strand vRNA levels in the human forebrain organoids at different time points post-infection. […] (C) qRT-PCR analysis of human forebrain organoids that were treated with 25 μM HH or DMSO at 42 h or 48 h post-ZIKV (FSS13025 strain) infection and maintained for additional 3 days. p values were calculated by unpaired two-tailed Student's t-test. *p<0.05, **p<0.01 and ***p<0.001, if not mentioned specifically.
To further validate the effect of HH on ZIKV-infected brain organoids, we first monitored ZIKV vRNA expression dynamics in organoids using qRT-PCR analysis.
RNA Extraction and qRT-PCR. Total RNA of cultured cells and organs was extracted with RNeasy plus mini kit (Qiagen). vRNA from cell culture supernatant or mouse serum was extracted with QIAampe viral RNA mini kit (Qiagen). […] ZIKV vRNA levels were calculated using a standard curve generated using serial 10-fold dilutions of ZIKV vRNA.

Compound | production of infectious ZIKV, Vero cell re-infection assay [1] | ZIKV induced growth arrest or apoptosis of hNPCs [2] | transcriptional changes induced by ZIKV infection (RNA-seq) [3] | cell death rate and total cell number ([2]; ZIKV infected hNPCs, day 6) | ZIKV-induced loss of cell viability ([2]; dose-dependent, compound applied 2 h post infection) | expression of neural progenitor markers SOX2 and NESTIN and differentiation capacity ([2]; hNPCs with or without ZIKV infection treated for 3 days) | cytotoxicity to hNPCs ([2]; highest dose of 100 μM) | total and replicating (-) ZIKV vRNA levels in forebrain organoids [4]
CCN(CC)Cc1cc(Nc2ccnc3cc(Cl)ccc23)ccc1O [AQ, amodiaquine dihydrochloride dihydrate] | significantly suppressed | blocked ZIKV induced growth arrest or apoptosis | reversed the transcriptional changes |  |  |  |  | 
CN1CCC2=C[C@H](O)[C@H]3OC(=O)c4cc5c(cc4[C@H]3[C@@H]21)OCO5 [HH, hippeastrine hydrobromide] | significantly suppressed | blocked ZIKV induced growth arrest or apoptosis | reversed the transcriptional changes | comparable to control mock infection conditions | successfully rescued | maintained the expression of neural progenitor markers | no obvious cytotoxicity | significantly decreased
